Measurements taken from US20100267561A1, “HERBICIDAL PYRIDAZINONE DERIVATIVES” (priority 2007, published 2010).

Tests used:
Test in all cases: Test B pre-/postemergence plant response
Format in all cases: in vivo
[1] = system: blackgrass (Alopecurus myosuroides); conditions: for Blackgrass plant response rating: 8 g ai/ha
Outline: (§1)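 Preemergence and postemergence (plants 2-18 cm, 1- to 4-leaf stage) applications used test chemicals in a non-phytotoxic solvent with surfactant. Plants were held in a greenhouse 13 to 15 days, then rated visually against controls on a 0-100 scale (0 no effect, 100 complete control).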

[2] = system: catchweed bedstraw (Galium aparine); conditions: Preemergence, scale 0 to 100
Outline: as §1

kochia (Kochia scoparia) = system: kochia (Kochia scoparia)
Outline: as §1

[3] = system: surinam grass (Brachiaria decumbens)
Outline: as §1

[4] = system: eastern black (E.B.) nightshade (Solanum ptycanthum); conditions: Preemergence
Outline: as §1

[5] = system: pigweed (Amaranthus retroflexus)
Outline: as §1

[6] = system: morningglory (Ipomoea coccinea)
Outline: as §1

[7] = system: common (oilseed) sunflower (Helianthus annuus); conditions: Preemergence
Outline: as §1

[8] = system: green foxtail (Setaria viridis)
Outline: as §1

[9] = system: johnsongrass (Sorghum halepense)
Outline: as §1

[10] = system: woolly cupgrass (Eriochloa villosa)
Outline: as §1

corn (Zea mays) = system: corn (Zea mays)
Outline: as §1

[11] = system: giant foxtail (Setaria faberii)
Outline: as §1

[12] = system: downy bromegrass (Bromus tectorum); conditions: for Bromegrass, Downy plant response rating: 8 g ai/ha
Outline: as §1

[13] = Postemergence, 16 g ai/ha, scale 0 to 100
[14] = Postemergence, 31 g ai/ha, scale 0 to 100
[15] = Postemergence, 62 g ai/ha, scale 0 to 100, 0 no effect, 100 complete control
[16] = Preemergence, 16 g ai/ha, scale 0 to 100 (0 no effect, 100 complete control)
[17] = Preemergence, 31 g ai/ha, 0 to 100 scale, 0 no effect, 100 complete control
[18] = Preemergence, 62 g ai/ha, scale 0 to 100
[19] = 8 g ai/ha, postemergence, 0-100 scale
[20] = Preemergence, 31 g ai/ha, scale 0 to 100 (0 no effect, 100 complete control)
[21] = Preemergence, 8 g ai/ha, scale 0 to 100
[22] = Preemergence, 16 g ai/ha, scale 0 to 100
[23] = 31 g ai/ha, scale 0 to 100 (0 no effect, 100 complete control)

Cc1cc(-c2ccc(Cl)cc2)nn1-c1c(OC(=O)Oc2ccccc2)cnn(C)c1=O [Compound 54]
40: Johnsongrass plant response rating [9, 22]
20: Plant response rating, Foxtail, Giant [11, 17]
65: Plant response rating, Corn (corn (Zea mays); [17])
45: Blackgrass plant response rating ([1]; postemergence, 0-100 scale) | Plant response rating, Blackgrass [1, 13]
90: Plant response rating, Blackgrass [1, 16] | Plant response rating, Blackgrass [1, 17] | Plant response rating, Blackgrass [1, 18] | Plant response rating, Johnsongrass [9, 18] | Plant response rating, Cupgrass, Woolly [10, 13]
98: Plant response rating, Surinam Grass [3, 14] | Plant response rating, Cupgrass, Woolly [10, 14] | Plant response rating, Foxtail, Giant [11, 13]
55: Plant response rating, Surinam Grass [3, 20] | Foxtail, Green plant response rating [8, 21] | Plant response rating, Foxtail, Giant [11, 18]
5: Bromegrass, Downy plant response rating ([12]; postemergence, 0-100 scale)
25: Plant response rating, Johnsongrass [9, 13] | Plant response rating, Corn (corn (Zea mays); [14])
0: Plant response rating, Galium ([2]; 62 g ai/ha) | Galium plant response rating ([2]; 8 g ai/ha) | Galium plant response rating ([2]; 16 g ai/ha) | Kochia plant response rating (kochia (Kochia scoparia); [19]) | Plant response rating, Kochia (kochia (Kochia scoparia); [13]) | Plant response rating, Kochia (kochia (Kochia scoparia); [14]) | Plant response rating, Kochia (kochia (Kochia scoparia); [15]) | Plant response rating, Kochia (kochia (Kochia scoparia); [17]) | Surinam Grass plant response rating [3, 21] | Surinam Grass plant response rating [3, 22] | Plant response rating, Nightshade, E. B. [4, 23] | Plant response rating, Nightshade, E. B. ([4]; 62 g ai/ha, scale 0 to 100) | Nightshade, E. B. plant response rating ([4]; 8 g ai/ha, scale 0 to 100) | Nightshade, E. B. plant response rating ([4]; 16 g ai/ha, scale 0 to 100) | Pigweed plant response rating [5, 19] | Plant response rating, Pigweed [5, 13] | Plant response rating, Pigweed [5, 14] | Plant response rating, Pigweed [5, 15] | Plant response rating, Pigweed [5, 20] | Plant response rating, Pigweed [5, 18] | Pigweed plant response rating [5, 21] | Pigweed plant response rating [5, 22] | Morningglory plant response rating [6, 19] | Plant response rating, Morningglory [6, 13] | Plant response rating, Morningglory [6, 14] | Plant response rating, Morningglory [6, 15] | Plant response rating, Morningglory [6, 20] | Plant response rating, Morningglory [6, 18] | Morningglory plant response rating [6, 21] | Morningglory plant response rating [6, 22] | Plant response rating, Sunflower [7, 23] | Plant response rating, Sunflower ([7]; 62 g ai/ha, scale 0 to 100) | Sunflower plant response rating ([7]; 8 g ai/ha, scale 0 to 100) | Sunflower plant response rating ([7]; 16 g ai/ha, scale 0 to 100) | Johnsongrass plant response rating [9, 19] | Johnsongrass plant response rating [9, 21] | Plant response rating, Cupgrass, Woolly [10, 17] | Plant response rating, Cupgrass, Woolly [10, 18] | Cupgrass, Woolly plant response rating [10, 21] | Cupgrass, Woolly plant response rating [10, 22] | Corn plant response rating (corn (Zea mays); [19]) | Plant response rating, Corn (corn (Zea mays); [13]) | Corn plant response rating (corn (Zea mays); [21]) | Corn plant response rating (corn (Zea mays); [22]) | Foxtail, Giant plant response rating [11, 21] | Foxtail, Giant plant response rating [11, 22] | Plant response rating, Bromegrass, Downy [12, 16] | Bromegrass, Downy plant response rating ([12]; Preemergence, scale 0 to 100)
50: Surinam Grass plant response rating [3, 19] | Plant response rating, Bromegrass, Downy [12, 13] | Plant response rating, Bromegrass, Downy [12, 14]
75: Plant response rating, Johnsongrass [9, 17]
80: Plant response rating, Johnsongrass [9, 14] | Cupgrass, Woolly plant response rating [10, 19]
100: Plant response rating, Surinam Grass [3, 15] | Plant response rating, Foxtail, Green [8, 15] | Plant response rating, Foxtail, Green [8, 17] | Plant response rating, Foxtail, Green [8, 18] | Plant response rating, Johnsongrass [9, 15] | Plant response rating, Cupgrass, Woolly [10, 15] | Plant response rating, Corn (corn (Zea mays); [15]) | Plant response rating, Foxtail, Giant [11, 14] | Plant response rating, Foxtail, Giant [11, 15]
95: Plant response rating, Surinam Grass [3, 13] | Plant response rating, Foxtail, Green [8, 13] | Plant response rating, Foxtail, Green [8, 14] | Foxtail, Green plant response rating [8, 22]
60: Blackgrass plant response rating ([1]; Preemergence, scale 0 to 100)
70: Plant response rating, Blackgrass [1, 14] | Plant response rating, Blackgrass [1, 15] | Foxtail, Green plant response rating [8, 19] | Plant response rating, Bromegrass, Downy [12, 15] | Plant response rating, Bromegrass, Downy [12, 17]
85: Plant response rating, Surinam Grass ([3]; Preemergence, 62 g ai/ha, 0 to 100 scale, 0 no effect, 100 complete control) | Plant response rating, Corn (corn (Zea mays); [18]) | Foxtail, Giant plant response rating [11, 19] | Plant response rating, Bromegrass, Downy [12, 18]
